Literature values as cited in patent publication US20080248140A1, “COMPOSITION FOR SUPPORTING RESTFUL SLEEP” (priority 2007, published 2008).

Columns and labels:
[1] = normal subjects (Mayer et al. 1996)
[2] = test system: GABA(A) receptor; conditions: activity produced by muscimol; Yuan et al. 2004

Row | Structure (SMILES) | quality of sleep and post-sleep restfulness [1] | neural activity in the brainstem [2]
1 | C/C1=C2/[N-][C@H]([C@H](CC(N)=O)[C@@]2(C)CCC(=O)NC[C@@H](C)OP(=O)([O-])O[C@H]2[C@@H](O)[C@@H](n3cnc4cc(C)c(C)cc43)O[C@@H]2CO)[C@]2(C)N=C(/C(C)=C3N=C(/C=C4N=C1[C@@H](CCC(N)=O)C\4(C)C)[C@@H](CCC(N)=O)[C@]\3(C)CC(N)=O)[C@@H](CCC(N)=O)[C@]2(C)CC(N)=O.[CH3-].[Co+3] [Methylcobalamin] | increases in the quality of sleep and feelings of post-sleep restfulness | –
2 | CC1=C2[C@H](/C=C(\C)C(=O)O)CC[C@@H](C)[C@H]2CC1 [Valerinic acid] | – | decrease neural activity in the brainstem
